Source: patent US7985740B2, “Purine derivatives as agonists of the adenosine A2A receptor” (Glaxo Group Limited, priority 2005, dated 2011)

Assays:
[1] = molecular target: T1, Human Serum Albumin (HSA) (Homo sapiens, UniProt P02768); test: Human serum albumin (HSA) binding, immobilised HSA HPLC column; assay type: in vitro ADME; details: for % HSA measured / logK measured: HSA column; for logK measured: derived from the calibration curve; for logtR: logarithm of typical retention time on the HSA column; for tR: typical retention time on the HSA column
T1 construct: purchased Chromtech (Cheshire, UK)
T1 sequence (P02768 25-609): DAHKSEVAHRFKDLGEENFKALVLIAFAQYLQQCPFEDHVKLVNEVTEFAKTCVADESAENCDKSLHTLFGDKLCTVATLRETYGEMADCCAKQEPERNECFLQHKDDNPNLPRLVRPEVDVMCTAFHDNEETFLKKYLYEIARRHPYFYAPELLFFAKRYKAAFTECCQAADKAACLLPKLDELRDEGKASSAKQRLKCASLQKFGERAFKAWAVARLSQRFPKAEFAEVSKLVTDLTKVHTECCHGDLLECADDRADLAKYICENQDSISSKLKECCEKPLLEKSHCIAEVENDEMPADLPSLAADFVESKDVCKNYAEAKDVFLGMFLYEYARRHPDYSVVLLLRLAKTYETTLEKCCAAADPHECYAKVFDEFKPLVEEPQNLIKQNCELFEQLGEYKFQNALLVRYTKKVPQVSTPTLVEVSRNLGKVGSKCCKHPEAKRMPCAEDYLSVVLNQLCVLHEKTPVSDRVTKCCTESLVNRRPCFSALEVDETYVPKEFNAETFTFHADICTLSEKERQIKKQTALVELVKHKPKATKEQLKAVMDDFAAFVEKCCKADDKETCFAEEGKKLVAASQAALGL
Protocol: Instrument: Agilent HP1100 HPLC instruments were used throughout.
HPLC columns: Chromtech Immobilised HSA HPLC column 50×3 mm was purchased from Chromtech (Cheshire, UK).
Mobile phase and detection: The mobile phase A was 50 mM pH 7.4 ammonium acetate solution, while mobile phase B was 2-Propanol (HPLC grade, Runcorn, UK). The mobile phase flow rate was 1.8 ml/min. The column temperature was kept at 30° C. The gradient profile and run time were the same with each column, the linear gradient from 0 to 30% 2-propanol was applied from 0 to 3 minutes. From 3 to 5 minutes, the mobile phase composition was constant 30% 2-propanol and 70% 50-mM ammonium acetate. From 5 min to 5.2 min the mobile phase composition was change to 100% ammonium acetate buffer only and remained the same until the end of the run. Each separation was stopped after 6 minutes. The column temperature was kept at 30° C.
Detection: Chromatograms were recorded at 230 and 254 nm by a diode array UV absorption detector at room temperature.

[2] = linear conversion of literature % PPB; cited from earlier work
neutrophilia = test: Inhibition of LPS-induced lung neutrophilia in rats, intratracheal dosing; assay type: in vivo; details: rat, retested at 30 ug/kg, similar method
Protocol: Rats are lightly anaesthetized (isofluorane in oxygen) and vehicle or test substance administered intratracheally using a cannula placed trans-orally (200 μl). Following intratracheal administration, rats are returned to their cages and allowed free access to both food and water. Thirty min later, rats are placed in a perspex box and exposed to aerosolized lipopolysaccharide (LPS) (0.15 mg/ml, serotype 0127:B8) for 15 min (Devilbiss nebuliser) at a flow rate of 15 ml/min. Animals are killed 4 h later with pentobarbital (250 mg/kg i.p.). The lungs are lavaged using 3 aliquots (5 ml) of phosphate-buffered saline (Sigma catalogue no. P3813, pH 7.4) containing heparin (10 units/ml); recovered cells are pooled (pooled volume of recovered fluid will be recorded) and centrifuged (1300 rpm for 7 min). The supernatant is removed by aspiration and the cell pellet resuspended in 1 ml phosphate-buffered saline. Total cells are counted (Sysmex Microcell Counter F-500, TOA Medical Electronics Ltd., Japan). Smears are made by diluting recovered fluid (to approximately 10^6 cells/ml) and spinning an aliquot (100 μl) in a centrifuge (Cytospin, Shandon, UK). […] A total of 300 cells per smear are counted by light microscopy under oil immersion (×1000).

[3] = molecular target: T2, human adenosine A3 receptor (Homo sapiens, UniProt P0DMS8); test: Agonist activity at human adenosine A3 receptor, CHO cells with cAMP response element SPAP reporter; assay type: cell-based; details: forskolin enhanced cAMP
T2 construct: expressed in transfected cells
T2 sequence (P0DMS8 1-318): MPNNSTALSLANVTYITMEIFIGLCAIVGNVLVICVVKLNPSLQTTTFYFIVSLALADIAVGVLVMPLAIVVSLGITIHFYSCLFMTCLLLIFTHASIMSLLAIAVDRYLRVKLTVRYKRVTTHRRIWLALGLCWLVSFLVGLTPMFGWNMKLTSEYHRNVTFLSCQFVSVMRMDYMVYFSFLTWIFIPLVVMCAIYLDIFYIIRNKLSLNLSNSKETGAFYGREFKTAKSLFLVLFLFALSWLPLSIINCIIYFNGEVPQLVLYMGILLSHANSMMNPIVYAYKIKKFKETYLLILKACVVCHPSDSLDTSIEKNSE
Protocol: The adenosine A3 agonist potency of compounds are determined using Chinese Hamster ovary cells stably expressing the human adenosine A3 receptor and the cAMP response element SPAP (secreted placental alkaline phosphatase). Increasing the level of cAMP in theses cell causes an increase in the transcription of the SPAP reporter gene, which can be quantified by addition of a colour substrate to measure a coloured product. The adenosine A3 receptor is Gi linked so levels cAMP have to be enhanced by forskolin in these cells. Activation of the adenosine A3 receptor is determined by the reduction of forskolin enhanced cAMP, which is measured as a decrease in the coloured product. The Adenosine A3 activity of the test compounds is expressed as a ratio to that of the non-selective adenosine receptor agonist, N-ethyl carboxamide adenosine (NECA).

In the case of `O=C1CN=C(c2ccccn2)c2cc(Br)ccc2N1` [Bromazepam], the “% HSA measured” value ([1]; pH 7.4) was 74.7%, the logK measured [1] was 0.45 and the logtR [1] was 0.06. The tR [1] was 1.16 and the “lit logK” value [2] was 0.17.
With `CCCC1O[C@@H]2C[C@H]3[C@@H]4CCC5=CC(=O)C=C[C@]5(C)[C@H]4[C@@H](O)C[C@]3(C)[C@]2(C(=O)CO)O1` (stereo partly drawn) [Budesonide] the “% HSA measured” value ([1]; pH 7.4) was 85.6%, the logK measured [1] was 0.75 and the logtR [1] was 0.20. For the same compound, the tR [1] was 1.6 and the “lit logK” value [2] was 0.83.
For `NC(=O)N1c2ccccc2C=Cc2ccccc21` [Carbamazepine], the “% HSA measured” value ([1]; pH 7.4) was 80.5%, the logK measured [1] was 0.59 and the logtR [1] was 0.13. The tR [1] was 1.35 and the “lit logK” value [2] was 0.46.
For `O=C(O)Cc1ccccc1Nc1c(Cl)cccc1Cl` [Diclofenac], the “lit logK” value [2] is listed as 1.92.
Work on `CCn1nnc([C@H]2O[C@@H](n3cnc4c(N[C@H]5CC[C@H](Nc6nc(NCCCCN7CCCC7)nc7[nH]cnc67)CC5)nc(NCCCCN5CCCC5)nc43)[C@H](O)[C@@H]2O)n1` [Example 4, (2R,3S,4R,5R)-2-(2-ethyl-2H-tetrazol-5-yl)-5-[2-{[4-(1-pyrrolidinyl)butyl]amino}-6-({trans-4-[(2-{[4-(1-pyrrolidinyl)butyl]amino}-1H-purin-6-yl)amino]cyclohexyl}amino)-9H-purin-9-yl]tetrahydro-3,4-furandiol, triformate] yielded an inhibition of neutrophilia (neutrophilia) of over 50%.
For `CCn1nnc(C2OC(n3cnc4c(NC5CCC(Nc6ccnc(NCCc7nc[nH]c7C)n6)CC5)nc(NCCc5nc[nH]c5C)nc43)C(O)C2O)n1.O=CO.O=CO` [Example 8, (2R,3S,4R,5R)-2-(2-ethyl-2H-tetrazol-5-yl)-5-[2-{[2-(5-methyl-1H-imidazol-4-yl)ethyl]amino}-6-({trans-4-[(2-{[2-(5-methyl-1H-imidazol-4-yl)ethyl]amino}-4-pyrimidinyl)amino]cyclohexyl}-amino)-9H-purin-9-yl]tetrahydro-3,4-furandiol, diformate], the HSA binding ([1]; pH 7.4) was “greater than 90%” and the “Adenosine A3 agonist activity” value [3] was “functionally inactive over the concentration range of the assay”.
For `CCn1nnc([C@H]2O[C@@H](n3cnc4c(N[C@H]5CC[C@H](Nc6ccnc(N[C@H]7CC[C@H](N)CC7)n6)CC5)nc(N[C@H]5CC[C@H](N)CC5)nc43)[C@@H](O)[C@H]2O)n1.O=CO.O=CO.O=CO` [Example 10, (2R,3S,4R,5R)-2-(2-[(trans-4-aminocyclohexyl)amino]-6-{[trans-4-({2-[(trans-4-aminocyclohexyl)amino]-4-pyrimidinyl}amino)cyclohexyl]-amino}-9H-purin-9-yl)-5-(2-ethyl-2H-tetrazol-5-yl)tetrahydro-3,4-furandiol, triformate], the “Adenosine A3 agonist activity” value [3] was “functionally inactive over the concentration range of the assay”.
For `COC(=O)C1=C(C)NC(C)=C(C(=O)OCCN(C)Cc2ccccc2)C1c1cccc([N+](=O)[O-])c1` (stereo not drawn) [Nicardipine], the “% HSA measured” value ([1]; pH 7.4) was 95.0%, the logK measured [1] was 1.22 and the logtR [1] was 0.43. The tR [1] was 2.7.
For `CNC(=C[N+](=O)[O-])NCCSCc1csc(CN(C)C)n1` [Nizatidine], the “% HSA measured” value ([1]; pH 7.4) was 24.6%, the logK measured [1] was −0.49 and the tR [1] was 0.40. The “lit logK” value [2] was −0.28.
For `CN1C(C(=O)Nc2ccccn2)=C(O)c2ccccc2S1(=O)=O` [Piroxicam], the “% HSA measured” value ([1]; pH 7.4) was 96.6%, the logK measured [1] was 1.34 and the logtR [1] was 0.49. For the same compound, the tR [1] was 3.1 and the “lit logK” value [2] was 1.16.
